These results are taken from US9539257B2, “Method of treating cancer” (NOVARTIS AG, priority 2009, dated 2017).

The conditions of data set [1]: previous reports; cited from earlier work.

From the text for HLA-DQA1*0201: The confirmatory study also offered a means to evaluate the specificity of the lapatanib effect by assessment of the letrozole-only arm in the same trial.

In the case of `CC1(C)S[C@@H]2[C@H](NC(=O)[C@H](N)c3ccc(O)cc3)C(=O)N2[C@H]1C(=O)O` [Amoxicillin], the “type of liver injury” value in data set [1] is “cholestatic”.
As to `N#Cc1ccc(C(c2ccc(C#N)cc2)n2cncn2)cc1` [letrozole, 4-[(4-cyanophenyl)-(1,2,4-triazol-1-yl)methyl]benzonitrile], in the data set with HLA-DQA1*0201 (letrozole-only comparator treatment arm (3/11)), the “DQA1*0201 carriage in ALT cases” value stood at 27%. The “DQA1*0201 carriage in ALT controls” value in the data set with HLA-DQA1*0201 (letrozole-only comparator treatment arm (40/159)) turned out to be 25%. In addition, the “cumulative incidence of ALT elevation, DQA1*0201 carriers compared with non-carriers” value in the data set on HLA-DQA1*0201 (letrozole-only treated patients, FIG. 3) is “did not differ”.
`Cc1onc(-c2c(F)cccc2Cl)c1C(=O)N[C@@H]1C(=O)N2[C@@H]1SC(C)(C)[C@@H]2C(=O)O` [flucloxacillin]: the “type of liver injury” value in data set [1] is “cholestatic”.
